The values that follow come from patent publication US8883782B2, “Spiro-tetracyclic ring compounds as beta-secretase modulators and methods of use” (Amgen Inc., priority 2010, dated 2014).

Like-named read-outs stand apart in the source and are kept apart here.

Assay [1] has as its system Aβ40 in conditioned medium of cells stably expressing Amyloid Precursor Protein (APP). Put plainly: In vitro BACE cell-based assay (Aβ40 in conditioned medium, sandwich ELISA). The method, boiled down: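 Secreted Aβ40 is captured with pAb40 and detected with biotinylated 6E10, read by europium time-resolved fluorescence. IC50 comes from percent inhibition versus concentration.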

In assay [2] the target is Beta Secretase enzyme (BACE) (Homo sapiens, UniProt P56817). The assay can be described thus: In vitro enzymatic BACE FRET (fluorescence resonance energy transfer) assay. Type of assay: biochemical. The method, boiled down: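 Acetate buffer (0.05 M, pH 4.2), 10% DMSO final, 100 uM nonionic detergent genapol. Substrate addition (50 nM FRET peptide) initiates; one-hour incubation; Tris raises pH to neutrality before fluorescence measurement.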
Sequence of Beta Secretase enzyme (BACE) (P56817 46-501, species assumed): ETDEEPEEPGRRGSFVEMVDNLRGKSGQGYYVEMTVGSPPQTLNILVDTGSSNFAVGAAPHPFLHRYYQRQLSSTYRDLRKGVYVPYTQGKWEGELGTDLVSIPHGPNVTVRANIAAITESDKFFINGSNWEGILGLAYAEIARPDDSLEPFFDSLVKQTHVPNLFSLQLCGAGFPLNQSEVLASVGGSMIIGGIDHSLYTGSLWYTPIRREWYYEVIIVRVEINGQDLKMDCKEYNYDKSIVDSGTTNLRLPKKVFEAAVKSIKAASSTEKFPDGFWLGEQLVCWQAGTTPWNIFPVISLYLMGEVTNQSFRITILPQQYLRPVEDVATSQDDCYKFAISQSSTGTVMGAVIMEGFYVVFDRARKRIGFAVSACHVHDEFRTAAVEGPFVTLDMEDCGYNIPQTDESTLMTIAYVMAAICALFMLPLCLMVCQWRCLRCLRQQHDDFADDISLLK

Where [3] appears, read: Homo sapiens, HEK293, average IC50, HEK cells, read-out: HEK cell assay.
Setting [4] is: average IC50, enzyme assay, read-out: BACE 1 FRET assay.
The mark [5] stands for this setting: Homo sapiens, HEK293, average IC50, read-out: HEK cell assay.

On to `Cc1ccnn1-c1cc(F)c2c(c1)[C@]1(COC(N)=N1)c1cc(-c3cccnc3)ccc1O2` [Example 634, (4S)-4′-fluoro-2′-(5-methyl-1H-pyrazol-1-yl)-7′-(3-pyridinyl)spiro[1,3-oxazole-4,9′-xanthen]-2-amine], for which the IC50 in assay [1] (setting [3]) came out at 0.154 µM; in assay [2] (setting [4]) it was 0.0303 µM.
For `CC(C)(C)COc1cc(F)c2c(c1)[C@]1(COC(N)=N1)c1cc(-c3cncnc3)c(F)cc1O2` [Example 526, (4S)-7′-(2,2-dimethylpropoxy)-3′,5′-difluoro-2′-(5-pyrimidinyl)spiroy[1,3-oxazole-4,9′-xanthen]-2-amine], the figures for the IC50 in assay [1] (setting [3]) and in assay [2] (setting [4]) were 0.0091 µM and 0.002 µM, respectively.
`NC1=N[C@@]2(CO1)c1cc(-c3ccc(F)cc3)ccc1Oc1cnc(C3=CCOCC3)cc12` [Example 394, (5S)-3-(3,6-dihydro-2H-pyran-4-yl)-7-(4-fluorophenyl)spiro[chromeno[2,3-c]pyridine-5,4′-[1,3]oxazol]-2′-amine]: the IC50 in assay [1] (setting [3]) stood at 0.138 µM; in assay [2] (setting [4]) it was 0.0094 µM.
With `COc1cc(F)c2c(c1)[C@]1(CSC(N)=N1)c1cc(-c3cccnc3)ccc1O2` [Example 650, (4S)-4′-fluoro-2′-methoxy-7′-(3-pyridinyl)spiro[1,3-thiazole-4,9′-xanthen]-2-amine], the IC50 came to 0.251 µM in assay [1] (setting [3]) and 0.009 µM in assay [2] (setting [4]).
Take `CC(C)(C)C#Cc1cc2c(nc1F)Oc1ccc(-c3cccnc3F)cc1C21COC(N)=N1` (stereo not shown) [Example 148, 3-(3,3-dimethyl-1-butyn-1-yl)-2-fluoro-7-(2-fluoro-3-pyridinyl)spiro[chromeno[2,3-b]pyridine-5,4′-[1,3]oxazol]-2′-amine]: the IC50 in assay [1] (setting [5]) came to 0.0214 µM; in assay [2] (setting [4]) it was 0.0007 µM.
For `COC(C)(C)COc1cnc2c(c1)[C@@]1(COC(N)=N1)c1cc(-c3cc(Cl)ccc3F)ccc1O2` [Example 318, (5R)-7-(5-chloro-2-fluorophenyl)-3-(2-methoxy-2-methylpropoxy)spiro[chromeno[2,3-b]pyridine-5,4′-[1,3]oxazol]-2′-amine], in that order: 1.81 µM and 0.367 µM.
“(5R)-3-bromo-7-iodospiro[chromeno[2,3-b]pyridine-5,4′-[1,3]oxazol]-2′-amine, (5S)-3-bromo-7-iodospiro[chromeno[2,3-b]pyridine-5,4′-[1,3]oxazol]-2′-amine [Example 762]”: the IC50 in assay [1] (average IC50, read-out: HEK cell assay) was found to be 0.085 µM; in assay [2] (setting [4]) it was 0.004 µM.
In the case of `Cc1ccn(-c2cc(F)c3c(c2)[C@]2(COC(N)=N2)c2cc(-c4cncnc4)ccc2O3)n1` [Example 635, (4S)-4′-fluoro-2′-(3-methyl-1H-pyrazol-1-yl)-7′-(5-pyrimidinyl)spiro[1,3-oxazole-4,9′-xanthen]-2-amine], the IC50 in assay [1] (setting [3]) was 0.023 µM; in assay [2] (setting [4]) it was 0.0024 µM.
For `NC1=NC2(CS1)c1cc(-c3cccnc3F)ccc1Oc1c2cc(Cl)nc1F` (stereo not shown) [Example 611, 3-chloro-1-fluoro-7-(2-fluoro-3-pyridinyl)spiro[chromeno[2,3-c]pyridine-5,4′-[1,3]thiazol]-2′-amine], in that order: 2.95 µM and 0.0061 µM.
For `NC1=N[C@@]2(CO1)c1cc(-c3cccnc3F)ccc1Oc1nc(F)c(N3CCOCC3)cc12` [Example 714, (S)-2-fluoro-7-(2-fluoropyridin-3-yl)-3-morpholino-5′H-spiro[chromeno[2,3-b]pyridine-5,4′-oxazol]-2′-amine], in that order: 0.055 µM and 0.0036 µM.
For `NC1=N[C@@]2(CS1)c1cc(-c3cccnc3)ccc1Oc1ncc(C3=CCCOC3)cc12` [Example 959, (5S)-3-(5,6-dihydro-2H-pyran-3-yl)-7-(3-pyridinyl)spiro[chromeno[2,3-b]pyridine-5,4′-[1,3]thiazol]-2′-amine], in that order: 0.013 µM and 0.001 µM.
In the case of `NC1=N[C@@]2(CO1)c1cc(-c3cccnc3F)ccc1Oc1c(F)cc(-c3cnccn3)cc12` [Example 205, (4S)-4′-fluoro-7′-(2-fluoro-3-pyridinyl)-2′-(2-pyrazinyl)spiro[1,3-oxazole-4,9′-xanthen]-2-amine], the IC50 in assay [1] (setting [5]) is 0.0101 µM; in assay [2] (setting [4]) it was 0.0016 µM.
For `NC1=N[C@@]2(CO1)c1cc(C#CC3CC3)ccc1Oc1ncc(N3CCC(F)(F)C3)cc12` [Example 178, (5S)-7-(cyclopropylethynyl)-3-(3,3-difluoro-1-pyrrolidinyl)spiro[chromeno[2,3-b]pyridine-5,4′-[1,3]oxazol]-2′-amine], in that order: 0.0143 µM and 0.0031 µM.
As for `NC1=N[C@@]2(CO1)c1cc(-c3cccnc3F)ccc1Oc1cnc(N3CCC(F)CC3)cc12` [Example 436, (5S)-3-(4-fluoro-1-piperidinyl)-7-(2-fluoro-3-pyridinyl)spiro[chromeno[2,3-c]pyridine-5,4′-[1,3]oxazol]-2′-amine], the IC50 in assay [1] (setting [3]) turned out to be 0.008 µM; in assay [2] (setting [4]), 0.0006 µM.
On to `NC1=N[C@@]2(CO1)c1cc(-c3cncc(C4=CCOCC4)c3)ccc1Oc1cnc(C3=CCOCC3)cc12` [Example 231, (5S)-3-(3,6-dihydro-2H-pyran-4-yl)-7-(5-(3,6-dihydro-2H-pyran-4-yl)-3-pyridinyl)spiro[chromeno[2,3-c]pyridine-5,4′-[1,3]oxazol]-2′-amine], for which the IC50 in assay [1] (setting [5]) amounted to 0.106 µM; in assay [2] (setting [4]) it was 0.034 µM.
As to `NC1=N[C@@]2(CO1)c1cc(-c3c(F)ccnc3F)ccc1Oc1cnc([C@H]3CCCOC3)cc12` (mixture of isomers) [Example 909, (5S)-7-(2,4-difluoro-3-pyridinyl)-3-((3R)-tetrahydro-2H-pyran-3-yl)spiro[chromeno[2,3-c]pyridine-5,4′-[1,3]oxazol]-2′-amine, (5S)-7-(2,4-difluoro-3-pyridinyl)-3-((3S)-tetrahydro-2H-pyran-3-yl)spiro[chromeno[2,3-c]pyridine-5,4′-[1,3]oxazol]-2′-amine], the IC50 in assay [1] (read-out: HEK cell assay) was determined as 0.266 µM; in assay [2] (setting [4]) it was 0.0198 µM.
Turning to `CC1(C#Cc2ccc3c(c2)[C@@]2(COC(N)=N2)c2cc(N4CCC(F)(F)C4)ncc2O3)COC1` [Example 163, (5S)-3-(3,3-difluoro-1-pyrrolidinyl)-7-((3-methyl-3-oxetanyl)ethynyl)spiro[chromeno[2,3-c]pyridine-5,4′-[1,3]oxazol]-2′-amine], the IC50 in assay [1] (setting [5]) is 0.124 µM; in assay [2] (setting [4]) it was 0.0174 µM.
For the compound `NC1=N[C@@]2(CO1)c1cc(-c3cncc(F)c3)ccc1Oc1c2cc(C2=CCOCC2)nc1F` [Example 615, (5S)-3-(3,6-dihydro-2H-pyran-4-yl)-1-fluoro-7-(5-fluoro-3-pyridinyl)spiro[chromeno[2,3-c]pyridine-5,4′-[1,3]oxazol]-2′-amine], the IC50 in assay [1] (setting [3]) turned out to be 0.002 µM; in assay [2] (setting [4]) it was 0.0003 µM.
For the compound `Cc1ccc(-c2cnc3c(c2)[C@]2(CSC(N)=N2)c2cc(-c4cccnc4)ccc2O3)cn1` [Example 958, (5S)-3-(6-methyl-3-pyridinyl)-7-(3-pyridinyl)spiro[chromeno[2,3-b]pyridine-5,4′-[1,3]thiazol]-2′-amine], the values for the IC50 in assay [1] (setting [3]) and in assay [2] (setting [4]) were 0.019 µM and 0.0015 µM, respectively.
For `NC1=N[C@@]2(CO1)c1cc(-c3cnccc3F)ccc1Oc1cnc(C3=CCOCC3)cc12` [Example 391, (5S)-3-(3,6-dihydro-2H-pyran-4-yl)-7-(4-fluoro-3-pyridinyl)spiro[chromeno[2,3-c]pyridine-5,4′-[1,3]oxazol]-2′-amine], the IC50 was 0.0058 µM in assay [1] (Homo sapiens, HEK293, read-out: HEK cell assay (uM), average IC50, HEK cells) and 0.0007 µM in assay [2] (BACE 1 FRET assay (uM)).
Take `NC1=N[C@@]2(CO1)c1cc(I)ccc1Oc1ncc(Br)cc12` [Example 1016, (5S)-3-bromo-7-iodospiro[chromeno[2,3-b]pyridine-5,4′-[1,3]oxazol]-2′-amine]: the IC50 in assay [1] (setting [5]) is 0.012 µM; in assay [2] (setting [4]), 0.0007 µM.
Regarding `NC1=N[C@@]2(CO1)c1cc(-c3cccnc3F)ccc1Oc1ncc(C#CC3(F)COC3)cc12` [Example 520, (5S)-3-((3-fluoro-3-oxetanyl)ethynyl)-7-(2-fluoro-3-pyridinyl)spiro[chromeno[2,3-b]pyridine-5,4′-[1,3]oxazol]-2′-amine], the values for the IC50 in assay [1] (setting [3]) and in assay [2] (setting [4]) were 0.0139 µM and 0.0014 µM, respectively.
For the compound `NC1=N[C@@]2(CO1)c1cc(OCc3cccnc3)ccc1Oc1ncc(-c3cccnc3)cc12` [Example 975, (5S)-3-(3-pyridinyl)-7-(3-pyridinylmethoxy)spiro[chromeno[2,3-b]pyridine-5,4′-[1,3]oxazol]-2′-amine], the IC50 in assay [1] (setting [5]) was found to be 1.08 µM; in assay [2] (setting [4]), 0.116 µM.
`COC(C)(C)CNc1cc2c(cn1)Oc1ccc(-c3cccnc3)cc1[C@@]21COC(N)=N1` [Example 409, (5S)-N~3~-(2-methoxy-2-methylpropyl)-7-(3-pyridinyl)spiro[chromeno[2,3-c]pyridine-5,4′-[1,3]oxazole]-2′,3-diamine]: the values for the IC50 in assay [1] (setting [3]) and in assay [2] (setting [4]) were 0.0178 µM and 0.0066 µM, respectively.
For the compound `NC1=N[C@@]2(CO1)c1cc(-c3ccncc3F)ccc1Oc1cnc(-c3cncc(F)c3)cc12` [Example 575, (5S)-7-(3-fluoro-4-pyridinyl)-3-(5-fluoro-3-pyridinyl)spiro[chromeno[2,3-c]pyridine-5,4′-[1,3]oxazol]-2′-amine], the IC50 in assay [1] (setting [3]) was 0.971 µM; in assay [2] (setting [4]), 0.083 µM.
For `NC1=N[C@@]2(CS1)c1cc(-c3cccnc3F)ccc1Oc1cnc([C@H]3CCCOC3)cc12` [Example 932, (5S)-7-(2-fluoro-3-pyridinyl)-3-((3R)-tetrahydro-2H-pyran-3-yl)spiro[chromeno[2,3-c]pyridine-5,4′-[1,3]thiazol]-2′-amine], in that order: 0.208 µM and 0.0162 µM.
